Experimental data as given in ChEMBL document CHEMBL1136423, “Phosphate ester serum albumin affinity tags greatly improve peptide half-life in vivo” (Bioorg Med Chem Lett, 2003).
Where a SMILES comes first, the peptide text is derived from it. Bridges are numbered along the chain shown (N, C = ends). The star is where a group is joined. X3 = O=C(CCCCCOP(=O)(O)OC1CCC(c2ccccc2)(c2ccccc2)CC1)*; X4 = O=C(CCC(=O)*)NS(=O)(=O)c1ccc2ccccc2c1; X2 = O=C(CCCCCOP(=O)(O)Oc1ccc2ccccc2c1)*; X1 = O=C(CCCCCOP(=O)(O)OCCCCCc1ccccc1)*

Target: Albumin (Oryctolagus cuniculus) (UniProt P49065)
Sequence (P49065 whole entry, looked up): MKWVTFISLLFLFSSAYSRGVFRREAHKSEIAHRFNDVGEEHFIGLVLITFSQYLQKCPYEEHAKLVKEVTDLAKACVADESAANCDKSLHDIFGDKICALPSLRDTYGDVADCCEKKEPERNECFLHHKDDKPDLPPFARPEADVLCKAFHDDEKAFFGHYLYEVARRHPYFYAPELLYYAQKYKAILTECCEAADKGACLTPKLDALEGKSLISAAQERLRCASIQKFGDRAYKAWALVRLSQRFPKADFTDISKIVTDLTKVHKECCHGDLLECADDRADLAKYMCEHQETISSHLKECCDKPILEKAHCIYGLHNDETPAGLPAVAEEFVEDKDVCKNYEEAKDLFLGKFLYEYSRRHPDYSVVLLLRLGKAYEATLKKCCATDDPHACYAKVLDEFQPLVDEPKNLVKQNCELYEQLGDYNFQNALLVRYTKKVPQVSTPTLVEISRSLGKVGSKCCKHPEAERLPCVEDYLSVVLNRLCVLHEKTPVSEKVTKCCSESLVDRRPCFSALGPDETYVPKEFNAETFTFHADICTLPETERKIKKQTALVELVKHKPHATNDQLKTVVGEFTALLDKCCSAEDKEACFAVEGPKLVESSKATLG
Assay: Compound was measured for its retention time in rabbit serum albumin;where k`=tt-t0/t0; tt=retention time of compound and t0=retention time of DMSO

| Compound | k'/k'+1 |
| --- | --- |
| CC[C@H](C)[C@@H]1NC(=O)[C@H](CCCN=C(N)N)NC(=O)[C@@H]2CCCN2C(=O)[C@H](CC(N)=O)NC(=O)[C@H](CC(=O)O)NC(=O)[C@@H](NC(=O)[C@H](CC(C)C)NC(=O)[C@H](C)NC(C)=O)CSSC[C@@H](C(=O)N[C@@H](CCC(N)=O)C(=O)N[C@@H](Cc2ccccc2)C(=O)N[C@H](C(=O)N[C@@H](CCC(=O)O)C(=O)NCC(N)=O)C(C)C)NC(=O)[C@H](Cc2ccc(O)cc2)NC(=O)[C@H](Cc2c[nH]c3ccccc23)NC(=O)[C@H](CCCN=C(N)N)NC(=O)[C@H](CC(=O)O)NC1=O (Ac-ALCDNPRIDRWYCQFVEG-NH2; disulfide 3-13) | 0.39 |
| CC[C@H](C)[C@@H]1NC(=O)[C@H](CCCN=C(N)N)NC(=O)[C@@H]2CCCN2C(=O)[C@H](CC(N)=O)NC(=O)[C@H](CC(=O)O)NC(=O)[C@@H](NC(=O)[C@H](CC(C)C)NC(=O)[C@H](C)NC(=O)CCCCCOP(=O)(O)OCCCCCc2ccccc2)CSSC[C@@H](C(=O)N[C@@H](CCC(N)=O)C(=O)N[C@@H](Cc2ccccc2)C(=O)N[C@H](C(=O)N[C@@H](CCC(=O)O)C(=O)NCC(N)=O)C(C)C)NC(=O)[C@H](Cc2ccc(O)cc2)NC(=O)[C@H](Cc2c[nH]c3ccccc23)NC(=O)[C@H](CCCN=C(N)N)NC(=O)[C@H](CC(=O)O)NC1=O (X1-ALCDNPRIDRWYCQFVEG-NH2; disulfide 3-13) | 0.98 |
| CC[C@H](C)[C@@H]1NC(=O)[C@H](CCCN=C(N)N)NC(=O)[C@@H]2CCCN2C(=O)[C@H](CC(N)=O)NC(=O)[C@H](CC(=O)O)NC(=O)[C@@H](NC(=O)[C@H](CC(C)C)NC(=O)[C@H](C)NC(=O)CCCCCOP(=O)(O)Oc2ccc3ccccc3c2)CSSC[C@@H](C(=O)N[C@@H](CCC(N)=O)C(=O)N[C@@H](Cc2ccccc2)C(=O)N[C@H](C(=O)N[C@@H](CCC(=O)O)C(=O)NCC(N)=O)C(C)C)NC(=O)[C@H](Cc2ccc(O)cc2)NC(=O)[C@H](Cc2c[nH]c3ccccc23)NC(=O)[C@H](CCCN=C(N)N)NC(=O)[C@H](CC(=O)O)NC1=O (X2-ALCDNPRIDRWYCQFVEG-NH2; disulfide 3-13) | 0.97 |
| CC[C@H](C)[C@@H]1NC(=O)[C@H](CCCN=C(N)N)NC(=O)[C@@H]2CCCN2C(=O)[C@H](CC(N)=O)NC(=O)[C@H](CC(=O)O)NC(=O)[C@@H](NC(=O)[C@H](CC(C)C)NC(=O)[C@H](C)NC(=O)CCCCCOP(=O)(O)OC2CCC(c3ccccc3)(c3ccccc3)CC2)CSSC[C@@H](C(=O)N[C@@H](CCC(N)=O)C(=O)N[C@@H](Cc2ccccc2)C(=O)N[C@H](C(=O)N[C@@H](CCC(=O)O)C(=O)NCC(N)=O)C(C)C)NC(=O)[C@H](Cc2ccc(O)cc2)NC(=O)[C@H](Cc2c[nH]c3ccccc23)NC(=O)[C@H](CCCN=C(N)N)NC(=O)[C@H](CC(=O)O)NC1=O (X3-ALCDNPRIDRWYCQFVEG-NH2; disulfide 3-13) | 0.97 |
| CC[C@H](C)[C@@H]1NC(=O)[C@H](CCCN=C(N)N)NC(=O)[C@@H]2CCCN2C(=O)[C@H](CC(N)=O)NC(=O)[C@H](CC(=O)O)NC(=O)[C@@H](NC(=O)[C@H](CC(C)C)NC(=O)[C@H](C)NC(=O)CCC(=O)NS(=O)(=O)c2ccc3ccccc3c2)CSSC[C@@H](C(=O)N[C@@H](CCC(N)=O)C(=O)N[C@@H](Cc2ccccc2)C(=O)N[C@H](C(=O)N[C@@H](CCC(=O)O)C(=O)NCC(N)=O)C(C)C)NC(=O)[C@H](Cc2ccc(O)cc2)NC(=O)[C@H](Cc2c[nH]c3ccccc23)NC(=O)[C@H](CCCN=C(N)N)NC(=O)[C@H](CC(=O)O)NC1=O (X4-ALCDNPRIDRWYCQFVEG-NH2; disulfide 3-13) | 0.98 |
